Article PMC8894159, “Paltusotine, a novel oral once-daily nonpeptide SST2 receptor agonist, suppresses GH and IGF-1 in healthy volunteers” (Pituitary, 2022)

Assay: Relative bioavailability of capsule versus solution and food effect (10 mg)
Assay type: in vivo, human
Settings: for Tmax: human, plasma, oral
Experimental: Screening occurred within 28 days prior to the first administered dose (Day 1) in both single-dose and multiple-dose cohorts. Participants were confined to a clinical research unit from Day -2 until the day after the last dose. Dosing of paltusotine or placebo commenced on Day 1 after baseline studies. Participants fasted overnight for ≥ 10 h prior to each dose administration and remained fasting until 4 h post-dose (after collection of the last GH sample after growth hormone-releasing hormone [GHRH] challenge). For the food effect cohort, the study drug was administered 30 min after a high-fat and high-calorie breakfast. Crinetics Pharmaceuticals, Inc (San Diego, CA) provided the active ingredient, paltusotine (3-[4-(4-Aminopiperidin-1-yl)-3-(3,5-difluorophenyl)quinolin-6-yl]-2-hydroxybenzonitrile hydrochloride; CRN00808), for administration as either an oral solution (prepared on site at the Phase 1 unit) or as capsules (placebo, 5 mg, and 20 mg).
In the single-dose phase, participants were randomized 6:2 to paltusotine (1.25, 2.5, 5, 10, 20, 40, and 60 mg) or placebo in 7 cohorts (S1 to S7). Cohorts comparing oral bioavailability of solution versus capsules and the effect of a standardized high-fat, high-calorie breakfast on oral bioavailability of the capsule formulation employed the 10 mg dose level. In the multiple-dose phase, participants were randomized 6:3 to once-daily oral paltusotine capsules or placebo at doses of 5 mg for 7 days (M1, Day Last = Day 7), and 10, 20, and 30 mg daily for 10 days (M2, M3, M4, Day Last = Day 10). The initial starting dose of 1.25 mg in the single-dose phase was selected for this study based on nonclinical pharmacologic activity, pharmacokinetics, and safety studies. Subsequent doses were either specified in the protocol or were selected by the safety review committee responsible for the safety oversight of the study.
For assessing pharmacokinetics of paltusotine, the single-dose pharmacokinetic population included all randomized participants who received any amount of study drug with sufficient plasma concentration data. For the multiple-dose cohorts, only participants who received all doses were included. The relative bioavailability of the capsule formulation was determined by comparing its pharmacokinetic parameters with those of the solution formulation at the 10 mg dose. Food effect was determined at the same dose by comparing pharmacokinetic parameters in the fasting state to those when paltusotine was administered with a high-fat, high-calorie meal. For both formulation and food effect, ANOVA with treatment as a fixed effect and subject as a random effect was performed. Data for peak concentration (Cmax), AUC0-last, and AUC0-inf were natural log-transformed.

Cl.N#Cc1cccc(-c2ccc3ncc(-c4cc(F)cc(F)c4)c(N4CCC(N)CC4)c3c2)c1O [paltusotine, 3-[4-(4-Aminopiperidin-1-yl)-3-(3,5-difluorophenyl)quinolin-6-yl]-2-hydroxybenzonitrile hydrochloride]
AUC0-inf geometric mean ratio, high-fat high-calorie meal relative to fasted (10 mg capsules): 17%
Cmax geometric mean ratio, high-fat high-calorie meal relative to fasted (10 mg capsules): 14%
AUC0-inf geometric mean ratio, capsule relative to oral solution (10 mg, fasted): 69%
Cmax geometric mean ratio, capsule relative to oral solution (10 mg, fasted): 83%
decrease in Cmax and AUC0-24 with food (high-fat, high-calorie meal before 10 mg capsule): more than 7 fold
Tmax (10 mg, 10 mg capsules with high-fat, high-calorie meal): 3 h
Tmax (10 mg, 10 mg capsules, fasted): 2.1 h
